Assay results published in US10821115B2, “Compounds that inhibit Mcl-1 protein” (priority 2017, dated 2020).
Where two headings read alike, the source gives them in different places.

Assays:
[1] = target: recombinant human Mcl-1 (residues 171-327) / Bim interaction (Homo sapiens (Human), UniProt Q07820); test: biochemical; format: binding; settings: 0.1 nM Mcl-1(171-327), 0.05 nM biotin-Bim (51-76); read-out: Mcl-1 HTRF IC50
[2] = test system: human multiple myeloma cell line, OPM-2; test: Cell viability assay (OPM-2 10 FBS), CellTiter-Glo; format: cell-based
In short: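 Cells were seeded at 3000 cells/well in RPMI 1640 with 10% FBS and exposed to serially diluted compounds for 16 h at 37 °C, 5% CO2.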

[3] = Homo sapiens, OPM-2, 16 h, read-out: OPM-2 10% FBS IC50 IP, OPM-2 cells, 10% FBS, 16 h incubation

Sequence of recombinant human Mcl-1 (residues 171-327) / Bim interaction (Q07820 171-327): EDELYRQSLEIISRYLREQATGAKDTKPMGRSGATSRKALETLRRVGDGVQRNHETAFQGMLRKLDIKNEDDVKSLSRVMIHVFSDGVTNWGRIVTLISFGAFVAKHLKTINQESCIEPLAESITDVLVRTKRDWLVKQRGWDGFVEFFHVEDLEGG

## CO[C@]1(CN2CCN(C(C)C)[C@@H](C)C2)/C=C/C[C@H](C)[C@@H](C)S(=O)(=O)NC(=O)c2ccc3c(c2)N(C[C@@H]2CC[C@H]21)C[C@@]1(CCCc2cc(Cl)ccc21)CO3 [Example 337, (1S,3′R,6′R,7′R,8′E,11′S,12′R)-6-chloro-7′-methoxy-11′,12′-dimethyl-7′-(((3S)-3-methyl-4-(1-methylethyl)-1-piperazinyl)methyl)-3,4-dihydro-2H,15′H-spiro[naphthalene-1,22′-[20]oxa[13]thia[1′14]diazatetracyclo [14.7.2.0~3,6~.0~19,24~]pentacosa[8,16,18,24]tetraen]-15′-one 13′,13′-dioxide]
[1]
  IC50: 0.09 nM
[2]; [3]
  IC50: 59 nM

## CO[C@@]1(CN2CCN(Cc3ncccn3)CC2)/C=C/C[C@H](C)[C@@H](C)S(=O)(=O)NC(=O)c2ccc3c(c2)N(C[C@@H]2CC[C@H]21)C[C@@]1(CCCc2cc(Cl)ccc21)CO3 [Example 338, (1S,3′R,6′R,7′S,8′E,11′S,12′R)-6-chloro-7′-methoxy-11′,12′-dimethyl-7′-((4-(2-pyrimidinylmethyl)-1-piperazinyl)methyl)-3,4-dihydro-2H,15′H-spiro[naphthalene-1,22′-[20]oxa[13]thia[1,14]diazatetracyclo [14.7.2.0~3,6~.0~19,24~]pentacosa[8,16,18,24]tetraen]-15′-one 13′,13′-dioxide]
[1]
  IC50: 0.1 nM
[2]; [3]
  IC50: 57 nM

## CO[C@@]1(CN2CCN(C3CS(=O)(=O)C3)CC2)/C=C/C[C@H](C)[C@@H](C)S(=O)(=O)NC(=O)c2ccc3c(c2)N(C[C@@H]2CC[C@H]21)C[C@@]1(CCCc2cc(Cl)ccc21)CO3 [Example 339, (1S,3′R,6′R,7′S,8′E,11′S,12′R)-6-chloro-7′-((4-(1,1-dioxido-3-thietanyl)-1-piperazinyl)methyl)-7′-methoxy-11′,12′-dimethyl-3,4-dihydro-2H,15′H-spiro[naphthalene-1,22′-[20]oxa[13]thia[1,14]diazatetracyclo [14.7.2.0~3,6~.0~19,24~]pentacosa[8,16,18,24]tetraen]-15′-one 13′,13′-dioxide]
[1]
  IC50: 0.117 nM
[2]; [3]
  IC50: 153 nM

## CO[C@@]1(CN2CCN(C3COCCOC3)CC2)/C=C/C[C@H](C)[C@@H](C)S(=O)(=O)NC(=O)c2ccc3c(c2)N(C[C@@H]2CC[C@H]21)C[C@@]1(CCCc2cc(Cl)ccc21)CO3 [Example 340, (1S,3′R,6′R,7′S,8′E,11′S,12′R)-6-chloro-7′-((4-(1,4-dioxepan-6-yl)-1-piperazinyl)methyl)-7′-methoxy-11′,12′-dimethyl-3,4-dihydro-2H,15′H-spiro[naphthalene-1,22′-[20]oxa[13]thia[1,14]diazatetracyclo [14.7.2.0~3,6~.0~19,24~]pentacosa[8,16,18,24]tetraen]-15′-one 13′,13′-dioxide]
[1]
  IC50: 0.128 nM
[2]; [3]
  IC50: 60 nM

## CCN1[C@H](C)CN(C[C@@]2(OC)/C=C/C[C@H](C)[C@@H](C)S(=O)(=O)NC(=O)c3ccc4c(c3)N(C[C@@H]3CC[C@H]32)C[C@@]2(CCCc3cc(Cl)ccc32)CO4)C[C@@H]1C [Example 341, (1S,3′R,6′R,7′R,8′E,11′S,12′R)-6-chloro-7′-(((3R,5S)-4-ethyl-3,5-dimethyl-1-piperazinyl)methyl)-7′-methoxy-11′,12′-dimethyl-3,4-dihydro-2H,15′H-spiro[naphthalene-1,22′-[20]oxa[13]thia[1,14]diazatetracyclo [14.7.2.0~3,6~.0~19,24~]pentacosa[8,16,18,24]tetraen]-15′-one 13′,13′-dioxide]
[1]
  IC50: 0.052 nM
[2]; [3]
  IC50: 42 nM

## CO[C@]1(CN2CCN(C3COCCOC3)CC2)/C=C/C[C@H](C)[C@@H](C)S(=O)(=O)NC(=O)c2ccc3c(c2)N(C[C@@H]2CC[C@H]21)C[C@@]1(CCCc2cc(Cl)ccc21)CO3 [Example 342, (1S,3′R,6′R,7′R,8′E,11′S,12′R)-6-chloro-7′-((4-(1,4-piperazinyl)methyl)-7′-dioxepan-6-yl)-1-methoxy-11′,12′-dimethyl-3,4-dihydro-2H,15′H-spiro[naphthalene-1,22′-[20]oxa[13]thia[1,14]diazatetracyclo [14.7.2.0~3,6~.0~19,24~]pentacosa[8,16,18,24]tetraen]-15′-one 13′,13′-dioxide]
[1]
  IC50: 0.089 nM
[2]; [3]
  IC50: 104 nM

## CO[C@]1(CN2C[C@@H](C)N(C(C)C)[C@H](C)C2)/C=C/C[C@H](C)[C@@H](C)S(=O)(=O)NC(=O)c2ccc3c(c2)N(C[C@@H]2CC[C@H]21)C[C@@]1(CCCc2cc(Cl)ccc21)CO3 [Example 343, (1S,3′R,6′R,7′R,8′E,11′S,12′R)-6-chloro-7′-(((3R,5R)-3,5-dimethyl-4-(1-methylethyl)-1-piperazinyl)methyl)-7′-methoxy-11′,12′-dimethyl-3,4-dihydro-2H,15′H-spiro[naphthalene-1,22′-[20]oxa[13]thia[1,14]diazatetracyclo [14.7.2.0~3,6~.0~19,24~]pentacosa[8,16,18,24]tetraen]-15′-one 13′,13′-dioxide]
[1]
  IC50: 0.093 nM
[2]; [3]
  IC50: 94 nM

## COCCN(CCOC)C1CN(C[C@]2(OC)/C=C/C[C@H](C)[C@@H](C)S(=O)(=O)NC(=O)c3ccc4c(c3)N(C[C@@H]3CC[C@H]32)C[C@@]2(CCCc3cc(Cl)ccc32)CO4)C1 [Example 344, (1S,3′R,6′R,7′S,8′E,11′S,12′R)-7′-((3-(bis(2-methoxyethyl)amino)-1-azetidinyl)methyl)-6-chloro-7′-methoxy-11′,12′-dimethyl-3,4-dihydro-2H,15′H-spiro[naphthalene-1,22′-[20]oxa[13]thia[1,14]diazatetracyclo [14.7.2.0~3,6~.0~19,24~]pentacosa[8,16,18,24]tetraen]-15′-one 13′,13′-dioxide]
[1]
  IC50: 0.116 nM
[2]; [3]
  IC50: 57 nM

## CO[C@@]1(CN2CCN3CCOC[C@@H]3C2)/C=C/C[C@H](C)[C@@H](CCO)S(=O)(=O)NC(=O)c2ccc3c(c2)N(C[C@@H]2CC[C@H]21)C[C@@]1(CCCc2cc(Cl)ccc21)CO3 [Example 346, (1S,3′R,6′R,7′S,8′E,11′S,12′R)-6-Chloro-7′-((9aS)-hexahydropyrazino[2,1-c][1,4]oxazin-8(1H)-ylmethyl)-12′-(2-hydroxyethyl)-7′-methoxy-11′-methyl-3,4-dihydro-2H, 15′H-spiro[naphthalene-1,22′-[20]oxa[13]thia[1,14]diazatetracyclo[14.7.2.0-3,6˜.0˜19,24˜]pentacosa[8,16,18,24]tetraen]-15′-one 13′,13′-dioxide]
[1]
  IC50: 0.062 nM
[2]; [3]
  IC50: 66 nM

## CC(C)CO[C@@]1(CN2CCN3CCOC[C@@H]3C2)/C=C/C[C@H](C)[C@@H](C)S(=O)(=O)NC(=O)c2ccc3c(c2)N(C[C@@H]2CC[C@H]21)C[C@@]1(CCCc2cc(Cl)ccc21)CO3 [Example 349, (1S,3′R,6′R,7′S,8′E,11′S,12′R)-6-chloro-7′-((9aS)-hexahydropyrazino[2,1-c][1,4]oxazin-8(1H)-ylmethyl)-11′,12′-dimethyl-7′-(2-methylpropoxy)-3,4-dihydro-2H,15′H-spiro[naphthalene-1,22′-[20]oxa[13]thia[1,14]diazatetracyclo [14.7.2.0~3,6~.0~19,24~]pentacosa[8,16,18,24]tetraen]-15′-one 13′,13′-dioxide]
[1]
  IC50: 1.61 nM
[2]; [3]
  IC50: 7790 nM

## CC(C)CO[C@@]1(CN2CCN3CCCC[C@@H]3C2)/C=C/C[C@H](C)[C@@H](C)S(=O)(=O)NC(=O)c2ccc3c(c2)N(C[C@@H]2CC[C@H]21)C[C@@]1(CCCc2cc(Cl)ccc21)CO3 [Example 350, (15,3′R,6′R,7′S,8′E,11′S,12′R)-6-chloro-11′,12′-dimethyl-7′-(2-methylpropoxy)-7′-((9aR)-octahydro-2H-pyrido[1,2-a]pyrazin-2-ylmethyl)-3,4-dihydro-2H,15′H-spiro[naphthalene-1,22′-[20]oxa[13]thia[1,14]diazatetracyclo [14.7.2.0~3,6~.0~19,24~]pentacosa[8,16,18,24]tetraen]-15′-one 13′,13′-dioxide]
[1]
  IC50: 12.3 nM
[2]; [3]
  IC50: > 33300 nM

## CCCO[C@]1(CN2CCN3CCOC[C@@H]3C2)/C=C/C[C@H](C)[C@@H](C)S(=O)(=O)NC(=O)c2ccc3c(c2)N(C[C@@H]2CC[C@H]21)C[C@@]1(CCCc2cc(Cl)ccc21)CO3 [Example 351, (1S,3′R,6′R,7′R,8′E,11′S,12′R)-6-chloro-7′-((9aS)-hexahydropyrazino[2,1-c][1,4]oxazin-8(1H)-ylmethyl)-11′,12′-dimethyl-7′-propoxy-3,4-dihydro-2H,15′H-spiro[naphthalene-1,22′-[20]oxa[13]thia[1,14]diazatetracyclo [14.7.2.0~3,6~.0~19,24~]pentacosa[8,16,18,24]tetraen]-15′-one 13′,13′-dioxide]
[1]
  IC50: 0.121 nM
[2]; [3]
  IC50: 196 nM

## CCCO[C@]1(CN2CCN(C3COC3)CC2)/C=C/C[C@H](C)[C@@H](C)S(=O)(=O)NC(=O)c2ccc3c(c2)N(C[C@@H]2CC[C@H]21)C[C@@]1(CCCc2cc(Cl)ccc21)CO3 [Example 352, (1S,3′R,6′R,7′R,8′E,11′S,12′R)-6-chloro-11′,12′-dimethyl-7′-((4-(3-oxetanyl)-1-piperazinyl)methyl)-7′-propoxy-3,4-dihydro-2H,15′H-spiro[naphthalene-1,22-[20]oxa[13]thia[1,14]diazatetracyclo [14.7.2.0~3,6~.0~19,24~]pentacosa[8,16,18,24]tetraen]-15′-one 13′,13′-dioxide]
[1]
  IC50: 0.111 nM
[2]; [3]
  IC50: 162 nM

## CCCO[C@]1(CN2CCN3CCCC[C@@H]3C2)/C=C/C[C@H](C)[C@@H](C)S(=O)(=O)NC(=O)c2ccc3c(c2)N(C[C@@H]2CC[C@H]21)C[C@@]1(CCCc2cc(Cl)ccc21)CO3 [Example 353, (1S,3′R,6′R,7′R,8′E,11′S,12′R)-6-chloro-11′,12′-dimethyl-7′-((9aR)-octahydro-2H-pyrido[1,2-a]pyrazin-2-ylmethyl)-7′-propoxy-3,4-dihydro-2H,15′H-spiro[naphthalene-1,22′-[20]oxa[13]thia[1,14]diazatetracyclo [14.7.2.0~3,6~.0~19,24~]pentacosa[8,16,18,24]tetraen]-15′-one 13′,13′-dioxide]
[1]
  IC50: 0.135 nM
[2]; read-out: OPM-2 10% FBS IC50 IP, OPM-2 cells, 10% FBS, 16 h incubation
  IC50: 186 nM
